# Tests used:
# Monkey pharmacokinetics = type: in vivo; details: plasma, Male Cynomolgus Monkey, 1.0 mg/kg iv, solution, mean n=2
# Description: from Vital River (Beijing, China) and were typically 7-9 weeks of age at the time of dosing.
# During the pharmacokinetic studies all animals were housed individually. Access to food and water was provided ad libitum (i.e., subjects were dosed in the fed state). In the instances where oral (po) dose was administered in the fed state, with ad libitum access to food and water. Compounds were administered intravenously (iv) via the tail vein (n = 2) dosed as a solution (1 mg/kg, 3 ml/kg) or via oral gavage as a solution (10 mg/kg, 10 ml/kg). Dosing solutions were prepared immediately before dosing. The composition of each dosing vehicle […]
# Serial blood samples were collected via the jugular vein cannula at predetermined timepoints after dosing. Animals were monitored for pain or distress throughout the study, with at least daily monitoring during normal husbandry prior to study start. At the completion of the study, animals were euthanized by overdose of inhaled carbon dioxide. Blood samples were collected into tubes containing K2EDTA and stored on ice until centrifugation to obtain plasma, which was stored frozen at - 20 °C or lower.
# Dog pharmacokinetic studies were done at Pfizer (Groton, CT). All procedures performed on beagle dogs were in accordance with regulations and established guidelines and were reviewed and approved by an Institutional Animal Care and Use Committee through an ethical review process. Male Beagle dogs were purchased from Marshall Bioresources (North Rose, NY); subjects 3 years of age were used in pharmacokinetics studies. For each study (n=2), compounds were dosed iv by cephalic vein as a solution (0.5 mg/kg, 1 mL/kg) or via oral gavage as a suspension (3 mg/kg, 5 mL/kg). In the instances where oral (po) dose was administered in the fed state, dogs were fed a couple hours before dosing. In the instances where the IV dose was administered in the fasted state, dogs were fasted over night and fed 4 hours post dose. Subjects were monitored for pain or distress throughout the study followed by at least daily monitoring while off study. The iv dosing vehicle was optimized such that the compounds were in solution and stable for at least 24 h. Serial blood samples were collected via the jugular vein at predefined time points post-dose. […]
# Monkey pharmacokinetic studies were conducted at Pfizer (Groton, CT). […] Subjects were monitored for pain or distress throughout the study followed by at least daily monitoring while off study. […]
# Plasma samples were processed using protein precipitation with 50:50 acetonitrile: methanol containing terfenadine (5 ng/ml) as an internal standard followed by quantitation against a standard curve (0.1-1000 ng/ml) prepared in blank plasma. Quantitation of analyte in plasma samples was done using LC-MS/MS. […]
# [1] = In vitro genetic toxicity (bacterial reverse mutation assay); details: in vitro genetic toxicity studies; listed as PF-07957472
# CYP2C9 = CYP2C9 (Homo sapiens, UniProt P11712); experiment: biochemical
# CYP2C9, sequence (P11712 whole entry): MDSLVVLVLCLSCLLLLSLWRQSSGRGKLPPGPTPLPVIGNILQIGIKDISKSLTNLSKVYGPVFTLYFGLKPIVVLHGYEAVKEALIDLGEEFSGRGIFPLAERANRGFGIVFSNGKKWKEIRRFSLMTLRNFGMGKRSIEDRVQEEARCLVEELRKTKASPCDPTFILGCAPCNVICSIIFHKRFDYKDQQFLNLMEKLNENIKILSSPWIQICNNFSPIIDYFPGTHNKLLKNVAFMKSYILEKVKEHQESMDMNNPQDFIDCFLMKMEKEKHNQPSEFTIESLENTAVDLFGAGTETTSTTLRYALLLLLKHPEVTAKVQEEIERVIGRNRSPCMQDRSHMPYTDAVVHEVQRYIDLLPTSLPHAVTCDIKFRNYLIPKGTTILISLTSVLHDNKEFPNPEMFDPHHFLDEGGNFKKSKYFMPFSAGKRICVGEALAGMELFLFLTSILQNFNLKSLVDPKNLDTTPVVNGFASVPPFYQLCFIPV
# in vitro [2] = details: both, human, plasma
# AMPA Receptor = experiment: CEREP ion channel-binding; details: 30 µM
# Thermodynamic solubility = type: physicochemical; details: pH 7.4, aqueous buffer, thermodynamic from solid
# [3] = RRCK passive permeability; details: dog, MDCK
# Cyclooxygenase 2 = biological target: T1, Cyclooxygenase 2 (Homo sapiens, UniProt P35354); experiment: CEREP enzyme inhibition; type: biochemical
# T1 construct: purchased Eurofins Cerep
# T1 sequence (P35354 18-604): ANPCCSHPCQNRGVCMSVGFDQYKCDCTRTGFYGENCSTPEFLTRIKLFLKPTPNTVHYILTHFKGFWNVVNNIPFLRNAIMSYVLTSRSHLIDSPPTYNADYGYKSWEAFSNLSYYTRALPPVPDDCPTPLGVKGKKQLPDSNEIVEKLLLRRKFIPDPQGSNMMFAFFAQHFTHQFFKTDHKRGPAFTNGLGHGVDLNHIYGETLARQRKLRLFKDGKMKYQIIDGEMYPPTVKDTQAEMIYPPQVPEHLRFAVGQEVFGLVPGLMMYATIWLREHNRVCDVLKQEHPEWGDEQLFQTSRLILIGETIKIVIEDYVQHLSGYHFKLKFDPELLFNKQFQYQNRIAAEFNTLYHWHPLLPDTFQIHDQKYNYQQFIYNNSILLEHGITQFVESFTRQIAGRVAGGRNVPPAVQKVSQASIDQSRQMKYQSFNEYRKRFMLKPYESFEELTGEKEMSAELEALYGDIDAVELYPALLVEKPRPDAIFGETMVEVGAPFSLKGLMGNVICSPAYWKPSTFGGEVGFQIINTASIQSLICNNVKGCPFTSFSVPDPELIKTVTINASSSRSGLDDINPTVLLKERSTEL
# Human Caspase 2 = biological target: T2, Human Caspase 2 (Homo sapiens, UniProt P42575); experiment: biochemical
# T2 construct: assay run at Reaction Biology Corporation
# T2 sequence (P42575 170-325 limits assumed): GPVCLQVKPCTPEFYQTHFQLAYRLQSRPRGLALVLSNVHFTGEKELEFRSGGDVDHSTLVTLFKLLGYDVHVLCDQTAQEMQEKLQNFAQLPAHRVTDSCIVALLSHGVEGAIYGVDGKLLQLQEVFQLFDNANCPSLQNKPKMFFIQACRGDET
# T2 sequence (P42575 348-452 limits assumed): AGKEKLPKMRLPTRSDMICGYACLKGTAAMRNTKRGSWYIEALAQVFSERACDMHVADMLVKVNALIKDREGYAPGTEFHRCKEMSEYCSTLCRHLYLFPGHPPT
# in vitro [4] = details: mouse, plasma
structure (smiles),measurement,setting,value
Cc1ccc(N2CCN(C)CC2)cc1C(=O)NC1(c2cc(-c3cnn(C)c3)nc3ccccc23)CC1 [Compound 4],AUC(0-inf),Monkey pharmacokinetics,1600 ng·h/mL
same,half-life,Monkey pharmacokinetics,3.56 h
same,clearance,Monkey pharmacokinetics; read-out: CLp,10.7 mL/min/kg
same,Vd,Monkey pharmacokinetics; read-out: Vdss,2.09 L/kg
same,In vitro genotoxicity screen,[1],not mutagenic or clastogenic
same,IC50,CYP2C9,> 30 µM
same,fraction unbound,in vitro [2],0.109
same,% inhibition,AMPA Receptor,13%
same,solubility thermodynamic,Thermodynamic solubility,541 µM
same,Papp,[3],31.4 ×10⁻⁶ cm/s
same,inhibition at 30 µM,Cyclooxygenase 2,36%
same,IC50,Human Caspase 2,> 100 µM
same,fraction unbound,in vitro [4],0.093
